In a melting point compilation (Tetko et al.; mined from patent text by program, amines drawn as free bases though some values may be those of a salt) one finds melting point data, which are given here for 88 compounds.

As for `Cc1ccc(-c2c(-c3ccc(S(C)(=O)=O)cc3)cnn(-c3cccc(Cl)c3)c2=O)cc1`, the melting point lay in the range of 222 to 224 °C.

`CC(=O)C(=O)Nc1ccc(C#N)c(C(F)(F)F)c1` displayed a melting point of 147 to 148 °C. `c1ccc(-c2nnc(-c3ccccc3)c3c2CCCCCC3)cc1` registered a melting point of 163 to 165 °C. `O=C(O)Cc1cc(C(=O)c2ccccc2Cl)ccc1O` returned a melting point of 148 °C. Turning to `CCNC(=S)Nc1ccc2ncc(Nc3cc(OC)c(OC)c(OC)c3)cc2n1`, the melting point lay in the range of 237 to 238 °C. Under `CCCC(=O)NCCc1c[nH]c2ccc(OCc3ccccc3)cc12` stands 112 to 114 °C. The compound `CN1CCN(C(=O)OC2C3=C(SCCS3)C(=O)N2c2ccc(Cl)cn2)CC1` (stereo not drawn) came in with a melting point of 170 °C.

Compound `S=C(NCc1ccc2c(c1)OCO2)N1CCc2c([nH]c3ccccc23)C1c1ccc2c(c1)OCO2` (stereo not drawn) registered a melting point of 97 to 100 °C.

`CCCCCCCCCCCCCCc1ccc(C(=O)OC)cc1` returned a melting point of 28 to 29 °C. With `CN(C(=O)Cn1c(-c2ccc(Cl)cc2)nc2cccnc21)c1ccccc1` the figure was 170 to 171 °C; with `COc1cc2cc(CO)nc(-c3cccc(Cl)c3)c2cc1OC`, 118 to 120 °C; with `CCOC(=O)c1cn(CC)c2cc(N3CCN(C)CC3)c(F)cc2c1=O`, 176 to 179 °C. With `CNC(=S)N(Cc1ccc(Cl)nc1)CC(F)(F)F`, the melting point was 98 to 100 °C. With `CCN(CC)C(=O)c1ccc(/C=C(\C)c2ccc3c(c2)C(C)(C)CCC3(C)C)cc1`, the melting point fell in the range of 111 to 112 °C. Regarding `Cc1nc(-c2ccc(C(C)(C)C)cc2)sc1C(=O)N[C@H](C)[C@](O)(Cn1cncn1)c1ccc(F)cc1F`, the melting point lay in the range of 85 to 91 °C. Regarding `COc1cc(N(C(=O)COCCOCC(N)=O)c2cc(OC)cc3ccc(C)nc23)c2nc(C)ccc2c1`, the melting point is 191 to 193 °C. Compound `Cc1ccc2c(c1C)C(=O)C(=O)N2` displayed a melting point of 225 to 226 °C. Under `Cc1c(-c2ccc(OCc3ccccc3)cc2)n(Cc2ccc(OCCBr)cc2)c2ccc(OCc3ccccc3)cc12` stands 131 to 134 °C; under `Cc1nc(N2CCN(Cc3ccc4nsnc4c3)C2=O)sc1C(=O)NCc1cccnc1`, 105 to 107 °C; under `CC(C)(C=NO)n1ccnc1`, 117 to 120 °C. For `NS(=O)(=O)c1ccc(-n2cnc3c(-c4ccc(C(F)(F)F)cc4F)ncnc32)cc1`, the melting point was in the range of 244 to 245 °C. `c1ccc2cc(CSCc3ccc4ccccc4c3)ccc2c1`: the melting point was in the range of 119 to 121 °C.

Regarding `COc1cc(-c2nc(N)sc2CSC2CCCCC2)c(OC)cc1C`, the melting point was in the range of 143 to 144 °C. As to `COC(=O)c1cc(C)sc1NC(=O)Cc1ccccc1`, the melting point is 107 to 109 °C. For the compound `Cc1nc(-c2ccc(O)cc2)c(C(C)C)s1`, the melting point stood at 165 °C. `CSc1ccc(-c2cnn(-c3ccc(F)cc3)c(=O)c2OC(C)C)cc1` registered a melting point of 135 to 137 °C. `CC(C)NC1=NS(=O)(=O)c2cc(N)ccc2N1` registered a melting point of 278 to 283 °C. Turning to `CCN(CC)CCn1nc2c3c(cccc31)C(=O)c1c(NCCNCCO)cccc1-2`, the melting point fell in the range of 129 to 132 °C. Take `CC1C(=O)Oc2cc(N(Cc3ccccc3)Cc3ccccc3)ccc21` (stereo not drawn): the melting point lay within 111 to 112 °C. With `O=C(O)c1cccc2c1[nH]c1c(Cl)c(Cl)ccc12`, the melting point amounted to 290 °C. `O=S(=O)(N[C@H]1CC[C@H](CCN2CCN(c3nccc4c3OCC4)CC2)CC1)c1ccccc1` showed a melting point of 122 °C. In turn, `CCOC(=O)c1ccc2nc3c(c(=O)n2c1)CSC3` yielded a melting point of 183 to 185 °C. Turning to `Cc1cc(-c2[nH]c3ccc(OCc4ccccc4)cc3c2C)cc(C)c1O`, the melting point came out at 162 °C. As to `O=c1[nH]c2cc(Cl)ccc2c(O)c1SC/C=C\c1ccccc1`, the melting point was above 300 °C. Consider `COc1cc(OC)c2c(=O)[nH]c(-c3ccc(OC)c(-c4ccc(S(C)=O)cc4)n3)nc2c1` (stereo not drawn), for which the melting point fell in the range of 266 to 267 °C.

Take `C#CCOc1cc2ccccc2cc1COC(=O)C1CC1`: the melting point lay in the range of 58 to 60 °C. Under `COc1nc(C(F)(F)F)c(F)c(=O)n1-c1cc(OC(C)C)c(Cl)cc1F` stands 144 to 146 °C. With `O=C(O)c1ccc2c(c1)C=C(CCN1CCCC1)CC2` the figure was 202 to 203 °C. Under `CC(COc1c(-c2ccccc2)c(=O)oc2c(Cl)cccc12)CN1CCOCC1` (stereo not drawn) stands 120 to 122 °C; under `N#Cn1nc(-c2ccccc2)c(=O)cc1Br`, 152 to 155 °C.

Turning to `CCCCCCCCCCCNC(=O)N(C)CC(O)C(O)C(O)C(O)CO` (stereo not drawn), the melting point was 109 °C. Under `COC(=O)C[C@@H]1Nc2ccc(NC(=O)OC(C)(C)C)cc2CNC1=O` stands 167 to 169 °C.

For `CC(=O)Oc1ccc2c(c1)Oc1ccccc1C2=C1C2CC3CC(C2)CC1C3`, the melting point lay within 162 to 163 °C. In turn, `COC(=O)c1ccc(OCCCC#N)c(Cl)c1` showed a melting point of 144 °C. `O=C(O)CCCCCCCCN1C(=O)C(c2ccccc2)N(c2ccccc2)C1=O` (stereo not drawn) registered a melting point of 112 °C.

The compound `Cc1n[nH]c(C)c1Oc1cc(Cl)cc(Cl)c1` registered a melting point of 85 to 87 °C. As for `C#Cc1ccc(Nc2c(C(=O)NOCCO)ccc(F)c2F)c(Cl)c1`, the melting point lay in the range of 155 to 157 °C. `CCC(COC)n1cnc2c(Nc3ccc(C(F)(F)F)cc3Br)nc(C)nc21` (stereo not drawn) displayed a melting point of 123 to 124 °C.

`COC(C)(CC(=O)Nc1cccc(OC(=O)NC(C)C)c1)OC`: the melting point turned out to be 160 °C. Under `COc1ccc(-c2cc(-c3nccs3)c(=O)n(C)c2-c2ccc(C)o2)cc1` stands 205 to 206 °C; under `N=C(NCc1c(F)cccc1F)NN=Cc1c(Cl)cccc1Cl`, 168 to 170 °C.

The compound `COc1cc(Nc2nccc(NC3CCN(Cc4ccccc4)CC3)n2)cc(OC)c1OC` returned a melting point of 136 °C. Consider `CC(COc1c(-c2ccccc2)c(=O)[nH]c2cc(Cl)ccc12)=NO`, for which the melting point fell in the range of 196 to 198 °C. As for `CCCCn1c(C)c(C(=O)NC2CCN(CCc3ccccc3)CC2)c2cc(O)ccc21`, the melting point was in the range of 178 to 181 °C. The compound `CC(C)c1cccc(C(C)C)c1N1C(=O)c2ccccc2C1=O` had a melting point of 172 °C. `Cc1ccc(C(=O)Nc2c[nH]nc2C(=O)NCCC#N)o1` had a melting point of 135 to 137 °C.

Compound `Nc1ccc(I)cc1C(=O)c1ccccc1Cl` returned a melting point of 120 to 122 °C. Regarding `CC(Oc1cccc(Cl)c1)c1ccnc2ncnn12` (stereo not drawn), the melting point was in the range of 124 to 126 °C.

With `O=C(O)CCCC=C1SC[C@H]2[C@@H]1N(Cc1ccccc1)C(=O)N2Cc1ccccc1`, the melting point is 79 to 82 °C. `Cc1cc2c(cc1Br)C(C)(C)CCC2(C)C` returned a melting point of 73 °C. Compound `O=C(O)COc1ccc(SCc2cc(-c3ccc(C(F)(F)F)cc3)on2)c2c1CCCC2` yielded a melting point of 167 to 170 °C. Consider `CCCCCCCCCC(=O)OCc1cccn2c(=O)c(CCN3CCC(N4Cc5ccc(F)cc5O4)CC3)c(C)nc12`, for which the melting point turned out to be 112 °C. `O=C1N(CC2COCCO2)c2ccccc2C12COc1cc3c(cc12)OCC3` (stereo not drawn) came in with a melting point of 162 to 164 °C.

In turn, `CC(=NNC(=O)c1ccccc1)c1cccc(Cl)c1O` gave a melting point of 202 to 203 °C. For `CCCCCCCCCCCCCC(=O)N(CCCCCCCC)CCC(=O)O`, the melting point is 47 °C. Under `COc1cc2c(cc1Nc1ncc(Cl)c(Nc3ccccc3S(=O)(=O)N3CCC(O)C3)n1)CCN(CC(=O)N(C)C)CC2` (stereo not drawn) stands 70 to 84 °C; under `O=c1[nH]c2ncc(-c3ccccn3)nc2n1CC1CCCCC1`, 194 to 196 °C. `CCc1cc(OCc2ccc(-c3ccccc3C(=O)O)cc2)c2ccccc2n1` displayed a melting point of 204 to 205 °C.

For `COc1cc2c(cc1S(C)(=O)=O)CCN(C(C)=O)CC2`, the melting point lay within 159 to 162 °C.

In turn, `CN1C(=S)NN2CCCC21c1ccc(Cl)cc1` (stereo not drawn) gave a melting point of 159 to 161 °C.

Compound `CC(C)C[C@H](NC(=O)N1CCCCCC1)C(=O)N[C@](C)(Cc1ccc(OCc2ccccc2)cc1)C(=O)OC(C)(C)C` returned a melting point of 46 to 49 °C. The compound `Cc1cc(COc2ccc(S(=O)(=O)NC[C@@H](C(=O)NO)N3CCN(Cc4ccccc4)CC3)cc2)c2ccccc2n1` gave a melting point of 188 °C. As for `C=C(C)C(=O)NC(C)C`, the melting point came out at 89 °C. For the compound `CC(C)N1CCc2ccc(C(=O)CCC(=O)N3CCC(c4ccc(Cl)cc4)CC3)cc2CC1`, the melting point fell in the range of 139 to 140 °C. `O=C(O)c1c2c(nc3ccccc13)-c1cc3sc4ccccc4c3cc1CC2`: the melting point fell in the range of 190 to 193 °C. For `O=C(Oc1cccc2c(-c3ccccc3)c3cccc(OC(=O)C4CCCCC4)c3c(OC(=O)C3CCCCC3)c12)C1CCCCC1`, the melting point was 235 °C. With `Cc1cnc(Cl)c(C(=O)O)c1` the figure was 180 °C; with `COc1cc(CCCCC#CCCCC#CCO)c(O)c2ccccc12`, 85 to 87 °C. `O=C(O)C1C=CCn2c(=O)n(CCS)c(=O)n21` (stereo not drawn): the melting point fell in the range of 156 to 158 °C. The compound `CC(=O)Nc1cccc2c(-c3ccccc3)c([N+](=O)[O-])oc12` registered a melting point of 224 to 226 °C. Turning to `CSc1ncncc1C1c2cc(C#N)ccc2CC1(C)C` (stereo not drawn), the melting point is 157 to 158 °C. Compound `CCCCOc1ccc(C2=CC=CN3CCS(=O)(=O)N=C23)cc1` gave a melting point of 230 to 232 °C. Take `CC(C)n1c(CO)c(-c2ccc(F)cc2)c(-c2ccccc2)c1C(N)=O`: the melting point was 189 to 190 °C. In turn, `CCN1C=C(N)N=C(C2CC2)c2ccccc21` displayed a melting point of 93 to 95 °C.

Turning to `COc1ccc(Cc2cnc(N)nc2N)cc1OCCNS(=O)(=O)c1ccc(N)cc1`, the melting point was 207 to 208 °C. Under `O=C1CCC(C(=O)O)(c2cccc3ccccc23)CC1` stands 174 to 177 °C; under `COC(=O)C(=O)c1ccc(OCCOc2ccc(S(N)(=O)=O)cc2)cc1`, 136 to 137 °C; under `O=C(c1ccc(OCC2CC2)c2oc3ccccc3c12)[NH+]([O-])c1cccnc1` (stereo not drawn), 272 to 275 °C.
